Patent publication US20240173312A1, “Pharmaceutical Composition Comprising a Benzoheterocyclic Compound and Androgen Receptor Pathway Modulator and Application Thereof” (KANGPU BIOPHARMACEUTICALS, LTD., priority 2015, published 2024)
Read-outs that look alike come from different tables or passages of the source.

Experiments:
[1] = test system: Vcap cells (androgen receptor (+) prostate cancer cells); experiment: CTG cell proliferation assay (CellTiter-Glo)
Protocol: (§1) In vitro test of the inhibition effect of the compound in combination with androgen receptor pathway modulators and the like on the prostate cancer cell proliferation.
(§2) The tested compounds were used alone or in combination with other androgen receptor pathway modulators respectively. […] After that, 100 μl of CellTiter-Glo® cell viability assay reagent (Promega, catalogue number G7570) was added to each well and mixed well on a vibrator for 10 minutes to induce cell lysis. The 96-well plate was placed at room temperature for 10 minutes, so as to stabilize its luminescence signal. A white bottom membrane was pasted on the bottom of the plate and the plate was tested using EnSpire.

[2] = test system: Vcap cells (androgen receptor (+) prostate cancer cells)
Protocol: as §1, §2

[3] = Homo sapiens, VCaP, 120 h, read-out: Survival rate of Vcap cells, Table 3, tested compound alone
[4] = Homo sapiens, VCaP, 120 h, read-out: Survival rate of Vcap cells, Table 4, tested compound alone
[5] = Homo sapiens, VCaP, 120 h, read-out: Survival rate of Vcap cells, Table 5, tested compound alone
[6] = Homo sapiens, VCaP, 120 h, read-out: Survival rate of Vcap cells, Table 9, tested compound alone
[7] = Homo sapiens, VCaP, 120 h, read-out: Survival rate of Vcap cells, Table 10, tested compound alone
[8] = Homo sapiens, VCaP, 120 h, read-out: Vcap cell proliferation inhibition rate

Nc1cccc2c1CN(C1CCC(=O)NC1=O)C2=O (stereo not shown) [B001]
viability at 0.1 µM [1, 3]: 92% | viability at 1 µM ([1]; Homo sapiens, VCaP, 120 h, read-out: Survival rate of Vcap cells, Table 3, tested compound alone, 1.0 μM): 82.8% | viability at 10 µM [1, 3]: 81.9% | viability at 0.1 µM [1, 4]: 92% | viability at 1 µM ([1]; Homo sapiens, VCaP, 120 h, read-out: Survival rate of Vcap cells, Table 4, tested compound alone, 1 μM): 82.8% | viability at 10 µM [1, 4]: 81.9% | viability at 0.1 µM [1, 5]: 87.7% | viability at 1 µM ([1]; Homo sapiens, VCaP, 120 h, read-out: Survival rate of Vcap cells, Table 5, tested compound alone, 1.0 μM): 75.3% | viability at 10 µM [1, 5]: 72.3% | viability at 0.1 µM [1, 6]: 83.9% | viability at 1 µM ([1]; Homo sapiens, VCaP, 120 h, read-out: Survival rate of Vcap cells, Table 9, tested compound alone, 1.0 μM): 74.8% | viability at 10 µM [1, 6]: 69.1% | viability at 0.1 µM [1, 7]: 83.9% | viability at 1 µM ([1]; Homo sapiens, VCaP, 120 h, read-out: Survival rate of Vcap cells, Table 10, tested compound alone, 1.0 μM): 74.7% | viability at 10 µM [1, 7]: 69.1% | inhibition at 0.41 µM [1, 8]: 18.7% | inhibition at 1.23 µM [1, 8]: 20.7% | inhibition at 11.11 µM [1, 8]: 20.9% | inhibition at 33.33 µM [1, 8]: 22% | inhibition at 100 µM [1, 8]: 19.6% | Survival rate of Vcap cells ([1]; Table 3, tested compound 0.1 μM in combination with 1 μM ARN-509): 42.0% | Survival rate of Vcap cells ([1]; Table 3, tested compound 0.1 μM in combination with 1 μM Enzalutamide): 40.3% | Survival rate of Vcap cells ([1]; Table 3, tested compound 1.0 μM in combination with 1 μM ARN-509): 34.7% | Survival rate of Vcap cells ([1]; Table 3, tested compound 1.0 μM in combination with 1 μM Enzalutamide): 35.6% | Survival rate of Vcap cells ([1]; Table 3, tested compound 10 μM in combination with 1 μM ARN-509): 33.5% | Survival rate of Vcap cells ([1]; Table 3, tested compound 10 μM in combination with 1 μM Enzalutamide): 33.7% | Survival rate of Vcap cells ([1]; Table 3, tested compound alone, 1.0 μM): 82.8% | Survival rate of Vcap cells ([1]; Table 4, tested compound 0.1 μM in combination with 1 μM Abiraterone acetate): 78.5% | Survival rate of Vcap cells ([1]; Table 4, tested compound 0.1 μM in combination with 1 μM Galeterone): 51.1% | Survival rate of Vcap cells ([1]; Table 4, tested compound 1 μM in combination with 1 μM Abiraterone acetate): 68.0% | Survival rate of Vcap cells ([1]; Table 4, tested compound 1 μM in combination with 1 μM Galeterone): 43.3% | Survival rate of Vcap cells ([1]; Table 4, tested compound 10 μM in combination with 1 μM Abiraterone acetate): 62.9% | Survival rate of Vcap cells ([1]; Table 4, tested compound 10 μM in combination with 1 μM Galeterone): 42.8% | Survival rate of Vcap cells ([1]; Table 4, tested compound alone, 1 μM): 82.8% | Survival rate of Vcap cells ([1]; Table 5, tested compound 0.1 μM in combination with 1 μM ODM-201): 52.7% | Survival rate of Vcap cells ([1]; Table 5, tested compound 1.0 μM in combination with 1 μM ODM-201): 41.4% | Survival rate of Vcap cells ([1]; Table 5, tested compound 10 μM in combination with 1 μM ODM-201): 37.5% | Survival rate of Vcap cells ([1]; Table 5, tested compound alone, 1.0 μM): 75.3% | Survival rate of Vcap cells ([1]; Table 9, tested compound 0.1 μM in combination with 1 μM ARN-509): 50.9% | Survival rate of Vcap cells ([1]; Table 9, tested compound 0.1 μM in combination with 1 μM Enzalutamide): 52.1% | Survival rate of Vcap cells ([1]; Table 9, tested compound 1.0 μM in combination with 1 μM ARN-509): 42.6% | Survival rate of Vcap cells ([1]; Table 9, tested compound 1.0 μM in combination with 1 μM Enzalutamide): 42.3% | Survival rate of Vcap cells ([1]; Table 9, tested compound 10 μM in combination with 1 μM ARN-509): 40.9% | Survival rate of Vcap cells ([1]; Table 9, tested compound 10 μM in combination with 1 μM Enzalutamide): 38.4% | Cell survival rate ([1]; notes of Table 9: 1.0 μM tested compound in combination with 1.0 μM Enzalutamide): 42.6% | inhibition [2]: 21.4%
